Reference: PMC2533354, “Highly specific inhibition of leukaemia virus membrane fusion by interaction of peptide antagonists with a conserved region of the coiled coil of envelope” (Retrovirology, 2008)
In brackets after ≈: the same amount, converted by molar mass. Where a SMILES comes first, the peptide text is derived from it.

How the values were obtained:
[1] = Relative peptide solubility by laser nephelometry; type: physicochemical; conditions: filtered PBS with 1.5 % DMSO, maximum solubility in aqueous solution, two-fold serial dilution from DMSO stock, 200 μl, 1 hr at room temperature, laser nephelometry (forward scattered light, NEPHELOstar), duplicate wells, in solution if reading up to 3-fold the DMSO control
Method: A two-fold serial dilution of peptide in DMSO was performed, and added in duplicate to 96-well microplates. Filtered PBS was added to give a total volume of 200 μl and a final DMSO concentration of 1.5 % in all wells. The plates were incubated at room temperature for 1 hr and the relative solubility of peptides was established by measuring forward scattered light using a NEPHELOstar laser-based microplate nephelometer (BMG LABTECH). Wells containing PBS and 1.5 % DMSO only were used as blanks. Data analysis was carried out using ActivityBase, and peptides giving readings up to and including 3-fold higher than the average reading for the DMSO control were considered to be in solution at the concentrations specified.

BLV envelope = target: T1, BLV envelope (Bovine leukemia virus, UniProt P51519); experiment: Syncytium interference assay, BLV envelope-expressing HeLa effector cells; type: cell-based
T1 construct: A fragment encompassing the entire BLV envelope open reading frame; expressed in transfected cells; host or cells: HeLa (co-transfected with pRSV-Rev)
T1 sequence (P51519 302-515): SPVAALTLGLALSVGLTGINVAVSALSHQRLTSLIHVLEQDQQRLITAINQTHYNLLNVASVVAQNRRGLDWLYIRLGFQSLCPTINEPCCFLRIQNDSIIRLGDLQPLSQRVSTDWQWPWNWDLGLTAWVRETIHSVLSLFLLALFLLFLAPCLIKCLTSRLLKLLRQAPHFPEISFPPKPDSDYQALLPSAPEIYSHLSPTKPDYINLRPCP
Method: Briefly, HeLa cells for use as effector cells were transfected with the envelope expression vector pHTE-1 or with equal amounts of pCMV-BLVenv-RRE and pRSV-Rev using the Genejuice™ transfection reagent (Novagen) in accordance with the manufacturer's instructions. 24 h later, 3 × 10^5 effector cells were added to 7 × 10^5 untransfected HeLa target cells in six-well dishes (Nunc). Where appropriate, the co-culture was incubated in the presence of peptides at the concentrations specified. To assess the ability of the peptides to inhibit fusion induced by virally expressed BLV envelope, 2 × 10^5 BLV-infected FLK cells were used as effectors and added to 8 × 10^5 uninfected HeLa cells. After incubation at 37°C for 16 h, cells were washed twice with PBS and fixed in PBS + 3% paraformaldehyde. Assays were performed in triplicate and the number of syncytia (defined as multinucleated cells with 4 or more nuclei) from 10 low-power fields (LPF) per replicate was scored by light microscopy; some assays were stained using Giemsa. A syncytium formation value of 100% is defined as the number of syncytia formed in the absence of peptide but in the presence of 1.5% DMSO.

[2] = up to 20 μM, result in words (Figure 4D)
[3] = result in words, concentration not given (Figures 3B, 4A, 4C)

Structure (SMILES) | solubility kinetic at 1 h [1] [µM] | Inhibition of BLV Env-induced membrane fusion (BLV envelope; [2]) | inhibition at 30 µM (BLV envelope; HeLa, read-out: Inhibition of syncytium formation) [%] | Inhibition of BLV Env-induced membrane fusion (BLV envelope; peptide concentrations below 11 μM, where the peptide is soluble, result in words) | Inhibition of BLV Env-induced membrane fusion (BLV envelope; [3])
CC[C@H](C)[C@H](NC(=O)[C@H](CCCNC(=N)N)NC(=O)[C@H](C)NC(=O)[C@H](Cc1ccccc1)NC(=O)[C@H](CS)NC(=O)[C@H](CS)NC(C)=O)C(=O)N[C@@H](CCC(N)=O)C(=O)N[C@@H](CC(N)=O)C(=O)N[C@@H](CC(=O)O)C(=O)N[C@@H](CO)C(=O)N[C@H](C(=O)N[C@H](C(=O)N[C@@H](CCCNC(=N)N)C(=O)N[C@@H](C)C(=O)NCC(=O)N[C@@H](CC(=O)O)C(=O)N[C@@H](C)C(=O)N[C@@H](CCC(N)=O)C(=O)N1CCC[C@H]1C(=O)N[C@@H](C)C(=O)N[C@@H](CO)C(=O)N[C@@H](CCC(N)=O)C(=O)N[C@@H](CCCNC(=N)N)C(=O)N[C@H](C(=O)N[C@@H](CO)C(=O)N[C@H](C(=O)N[C@@H](CC(=O)O)C(=O)N[C@@H](Cc1c[nH]c2ccccc12)C(=O)N[C@@H](CCC(N)=O)C(N)=O)[C@@H](C)O)C(C)C)[C@@H](C)CC)[C@@H](C)CC [P^BLV-L/A] (Ac-CCFARIQNDSIIRAGDAQPASQRVSTDWQ-NH2) | 45 (≈ 148 µg/mL) | did not exhibit any discernible inhibition |  |  | 
CC[C@H](C)[C@H](NC(=O)[C@H](CCCNC(=N)N)NC(=O)[C@H](CC(C)C)NC(C)=O)C(=O)N[C@@H](CCC(N)=O)C(=O)N[C@@H](CC(N)=O)C(=O)N[C@@H](CC(=O)O)C(=O)N[C@@H](CO)C(=O)N[C@H](C(=O)N[C@H](C(=O)N[C@@H](CCCNC(=N)N)C(=O)N[C@@H](CC(C)C)C(=O)NCC(=O)N[C@@H](CC(=O)O)C(=O)N[C@@H](CC(C)C)C(=O)N[C@@H](CCC(N)=O)C(=O)N1CCC[C@H]1C(=O)N[C@@H](CC(C)C)C(=O)N[C@@H](CO)C(=O)N[C@@H](CCC(N)=O)C(=O)N[C@@H](CCCNC(=N)N)C(=O)N[C@H](C(=O)N[C@@H](CO)C(=O)N[C@H](C(=O)N[C@@H](CC(=O)O)C(=O)N[C@@H](Cc1c[nH]c2ccccc12)C(=O)N[C@@H](CCC(N)=O)C(N)=O)[C@@H](C)O)C(C)C)[C@@H](C)CC)[C@@H](C)CC [P^BLV-ΔCCF] (Ac-LRIQNDSIIRLGDLQPLSQRVSTDWQ-NH2) | 11.2 (≈ 34.8 µg/mL) |  | 40 | fails to inhibit membrane fusion | 
CC[C@H](C)[C@H](NC(=O)[C@H](CO)NC(=O)[C@@H](NC(=O)[C@H](Cc1c[nH]cn1)NC(=O)[C@H](CO)NC(=O)[C@H](CC(N)=O)NC(=O)[C@@H](NC(=O)[C@@H](NC(=O)[C@H](CC(N)=O)NC(=O)[C@H](C)NC(=O)[C@H](Cc1ccccc1)NC(=O)[C@H](CS)NC(=O)[C@H](CS)NC(C)=O)[C@@H](C)CC)[C@@H](C)O)C(C)C)C(=O)N[C@@H](C)C(=O)N[C@@H](CCC(N)=O)C(=O)N[C@@H](CCC(=O)O)C(=O)N[C@@H](CCCNC(=N)N)C(=O)N1CCC[C@H]1C(=O)N1CCC[C@H]1C(=O)N[C@@H](C)C(=O)N[C@@H](CCC(=O)O)C(=O)N[C@@H](CC(N)=O)C(=O)N[C@@H](CCCNC(=N)N)C(=O)N[C@H](C(=O)N[C@@H](C)C(=O)N[C@H](C(=O)NCC(=O)N[C@@H](Cc1c[nH]c2ccccc12)C(=O)NCC(=O)N[C@@H](C)C(N)=O)[C@@H](C)O)C(C)C [P^cr-400 L/A, reference compound] (Ac-CCFANITNSHVSIAQERPPAENRVATGWGA-NH2) | 45 (≈ 146 µg/mL) |  |  |  | did not interfere
CC[C@H](C)[C@H](NC(=O)[C@H](CC(C)C)NC(=O)[C@H](CO)NC(=O)[C@H](Cc1c[nH]cn1)NC(=O)[C@@H](NC(=O)[C@H](CC(C)C)NC(=O)[C@H](CC(C)C)NC(=O)[C@H](CO)NC(=O)[C@@H](NC(=O)[C@H](Cc1ccc(O)cc1)NC(=O)[C@H](CC(N)=O)NC(=O)[C@H](CC(N)=O)NC(=O)[C@@H](NC(=O)[C@H](CCC(=O)O)NC(=O)[C@H](CCCNC(=N)N)NC(=O)[C@H](CC(=O)O)NC(=O)[C@H](Cc1c[nH]c2ccccc12)NC(=O)[C@H](CCC(=O)O)NC(=O)[C@H](CCSC)NC(=O)[C@H](Cc1c[nH]c2ccccc12)NC(=O)CNC(C)=O)[C@@H](C)CC)[C@@H](C)O)[C@@H](C)CC)C(=O)N[C@@H](CCC(=O)O)C(=O)N[C@@H](CCC(=O)O)C(=O)N[C@@H](CO)C(=O)N[C@@H](CCC(N)=O)C(=O)N[C@@H](CC(N)=O)C(=O)N[C@@H](CCC(N)=O)C(=O)N[C@@H](CCC(N)=O)C(=O)N[C@@H](CCC(=O)O)C(=O)N[C@@H](CCCCN)C(=O)N[C@@H](CC(N)=O)C(=O)N[C@@H](CCC(=O)O)C(=O)N[C@@H](CCC(N)=O)C(=O)N[C@@H](CCC(=O)O)C(=O)N[C@@H](CC(C)C)C(=O)N[C@@H](CC(C)C)C(N)=O [Peptide C34, reference compound] (Ac-GWMEWDREINNYTSLLIHSLIEESQNQQEKNEQELL-NH2) | > 90 |  |  |  | did not interfere
CC[C@H](C)[C@H](NC(=O)[C@H](CO)NC(C)=O)C(=O)N[C@H](C(=O)N[C@@H](CCCNC(=N)N)C(=O)N[C@@H](CC(C)C)C(=O)NCC(=O)N[C@@H](CC(=O)O)C(=O)N[C@@H](CC(C)C)C(=O)N[C@@H](CCC(N)=O)C(=O)N1CCC[C@H]1C(=O)N[C@@H](CC(C)C)C(=O)N[C@@H](CO)C(=O)N[C@@H](CCC(N)=O)C(=O)N[C@@H](CCCNC(=N)N)C(=O)N[C@H](C(=O)N[C@@H](CO)C(=O)N[C@H](C(=O)N[C@@H](CC(=O)O)C(=O)N[C@@H](Cc1c[nH]c2ccccc12)C(=O)N[C@@H](CCC(N)=O)C(N)=O)[C@@H](C)O)C(C)C)[C@@H](C)CC [P^BLV-ΔN] (Ac-SIIRLGDLQPLSQRVSTDWQ-NH2) | > 90 |  |  |  | lacked detectable inhibitory activity
CC[C@H](C)[C@H](NC(=O)[C@H](CCCNC(=N)N)NC(=O)[C@H](CC(C)C)NC(=O)[C@H](Cc1ccccc1)NC(=O)[C@H](CS)NC(=O)[C@H](CS)NC(C)=O)C(=O)N[C@@H](CCC(N)=O)C(=O)N[C@@H](CC(N)=O)C(=O)N[C@@H](CC(=O)O)C(=O)N[C@@H](CO)C(=O)N[C@H](C(=O)N[C@H](C(=O)N[C@@H](CCCNC(=N)N)C(=O)N[C@@H](C)C(=O)NCC(=O)N[C@@H](CC(=O)O)C(=O)N[C@@H](CC(C)C)C(=O)N[C@@H](CCC(N)=O)C(=O)N1CCC[C@H]1C(=O)N[C@@H](C)C(=O)N[C@@H](CO)C(=O)N[C@@H](CCC(N)=O)C(=O)N[C@@H](CCCNC(=N)N)C(=O)N[C@H](C(=O)N[C@@H](CO)C(=O)N[C@H](C(=O)N[C@@H](CC(=O)O)C(=O)N[C@@H](Cc1c[nH]c2ccccc12)C(=O)N[C@@H](CCC(N)=O)C(N)=O)[C@@H](C)O)C(C)C)[C@@H](C)CC)[C@@H](C)CC [P^BLV-L404/410A] (Ac-CCFLRIQNDSIIRAGDLQPASQRVSTDWQ-NH2) | > 90 | failed to display any fusion-blocking activity |  |  | 
CC[C@H](C)[C@H](NC(=O)[C@H](CCCNC(=N)N)NC(=O)[C@H](CC(C)C)NC(=O)[C@H](Cc1ccccc1)NC(=O)[C@H](CS)NC(=O)[C@H](CS)NC(C)=O)C(=O)N[C@@H](CCC(N)=O)C(=O)N[C@@H](CC(N)=O)C(=O)N[C@@H](CC(=O)O)C(=O)N[C@@H](CO)C(=O)N[C@H](C(=O)N[C@H](C(=O)N[C@@H](CCCNC(=N)N)C(=O)N[C@@H](CC(C)C)C(=O)NCC(=O)N[C@@H](CC(=O)O)C(=O)N[C@@H](CC(C)C)C(=O)N[C@@H](CCC(N)=O)C(=O)N1CCC[C@H]1C(=O)N[C@@H](CC(C)C)C(N)=O)[C@@H](C)CC)[C@@H](C)CC [P^BLV-ΔC] (Ac-CCFLRIQNDSIIRLGDLQPL-NH2) | > 90 |  |  |  | lacked detectable inhibitory activity
